Assay results: patent US10544143B2, “4-azaindole compounds” (BRISTOL-MYERS SQUIBB COMPANY, priority 2017, dated 2020)

What was measured:
[1] = target: human TLR7 (Homo sapiens (Human), UniProt Q9NYK1); assay: TLR7 inhibition reporter assay (HEK-Blue SEAP); format: cell-based; conditions: HEK-Blue cells overexpressing human TLR7, gardiquimod 7.5 μM stimulation, SEAP reporter
[2] = target: human TLR8 (Homo sapiens (Human), UniProt Q9NR97); assay: TLR8 inhibition reporter assay (HEK-Blue SEAP); conditions: read-out: TLR8 IC50; HEK-Blue cells overexpressing human TLR8, R848 15.9 μM stimulation, SEAP reporter;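 also: SEAP driven by IFN-β minimal promoter carrying NF-κB and AP-1 sites, compounds dosed 0.05 nM to 50 µM for 22 h, inhibition scaled between agonist-plus-DMSO and reference-inhibitor wells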
[3] = target: human TLR9 (Homo sapiens (Human), UniProt Q9NR96); assay: TLR9 inhibition reporter assay (HEK-Blue SEAP); conditions: read-out: TLR9 IC50; HEK-Blue cells overexpressing human TLR9, ODN2006 5 nM stimulation, SEAP reporter;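 also: SEAP driven by an IFN-β minimal promoter with NF-κB and AP-1 sites, read after 22 h, compounds dosed 0.05 nM–50 µM, inhibition scaled between agonist plus DMSO and reference-inhibitor wells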
Chain of human TLR9 (Q9NR96 26-1032): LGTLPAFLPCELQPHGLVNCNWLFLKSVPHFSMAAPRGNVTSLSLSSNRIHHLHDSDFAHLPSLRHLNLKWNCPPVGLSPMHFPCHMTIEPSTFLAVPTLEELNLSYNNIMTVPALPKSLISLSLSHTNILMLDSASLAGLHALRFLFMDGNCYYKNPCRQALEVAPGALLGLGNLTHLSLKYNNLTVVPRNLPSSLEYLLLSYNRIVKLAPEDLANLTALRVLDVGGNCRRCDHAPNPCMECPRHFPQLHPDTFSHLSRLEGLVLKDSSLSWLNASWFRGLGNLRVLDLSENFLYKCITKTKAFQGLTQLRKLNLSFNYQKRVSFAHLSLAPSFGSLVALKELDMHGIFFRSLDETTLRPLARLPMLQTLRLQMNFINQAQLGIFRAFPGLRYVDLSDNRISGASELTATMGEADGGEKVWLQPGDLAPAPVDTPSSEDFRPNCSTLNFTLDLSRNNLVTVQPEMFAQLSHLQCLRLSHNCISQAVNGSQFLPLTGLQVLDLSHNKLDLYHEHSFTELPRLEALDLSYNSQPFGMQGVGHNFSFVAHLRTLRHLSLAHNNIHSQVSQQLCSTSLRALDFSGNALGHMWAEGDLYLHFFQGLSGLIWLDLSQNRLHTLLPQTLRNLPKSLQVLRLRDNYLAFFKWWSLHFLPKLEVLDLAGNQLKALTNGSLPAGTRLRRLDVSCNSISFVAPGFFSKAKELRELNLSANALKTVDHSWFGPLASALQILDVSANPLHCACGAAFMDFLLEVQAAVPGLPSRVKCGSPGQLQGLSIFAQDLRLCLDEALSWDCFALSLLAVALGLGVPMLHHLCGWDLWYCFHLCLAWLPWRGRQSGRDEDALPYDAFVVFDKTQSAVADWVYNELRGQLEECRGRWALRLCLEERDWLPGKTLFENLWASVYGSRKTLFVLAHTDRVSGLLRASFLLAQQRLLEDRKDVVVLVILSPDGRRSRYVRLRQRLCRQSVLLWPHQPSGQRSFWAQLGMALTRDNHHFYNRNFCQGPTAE

Chain of human TLR7 (Q9NYK1 27-1049): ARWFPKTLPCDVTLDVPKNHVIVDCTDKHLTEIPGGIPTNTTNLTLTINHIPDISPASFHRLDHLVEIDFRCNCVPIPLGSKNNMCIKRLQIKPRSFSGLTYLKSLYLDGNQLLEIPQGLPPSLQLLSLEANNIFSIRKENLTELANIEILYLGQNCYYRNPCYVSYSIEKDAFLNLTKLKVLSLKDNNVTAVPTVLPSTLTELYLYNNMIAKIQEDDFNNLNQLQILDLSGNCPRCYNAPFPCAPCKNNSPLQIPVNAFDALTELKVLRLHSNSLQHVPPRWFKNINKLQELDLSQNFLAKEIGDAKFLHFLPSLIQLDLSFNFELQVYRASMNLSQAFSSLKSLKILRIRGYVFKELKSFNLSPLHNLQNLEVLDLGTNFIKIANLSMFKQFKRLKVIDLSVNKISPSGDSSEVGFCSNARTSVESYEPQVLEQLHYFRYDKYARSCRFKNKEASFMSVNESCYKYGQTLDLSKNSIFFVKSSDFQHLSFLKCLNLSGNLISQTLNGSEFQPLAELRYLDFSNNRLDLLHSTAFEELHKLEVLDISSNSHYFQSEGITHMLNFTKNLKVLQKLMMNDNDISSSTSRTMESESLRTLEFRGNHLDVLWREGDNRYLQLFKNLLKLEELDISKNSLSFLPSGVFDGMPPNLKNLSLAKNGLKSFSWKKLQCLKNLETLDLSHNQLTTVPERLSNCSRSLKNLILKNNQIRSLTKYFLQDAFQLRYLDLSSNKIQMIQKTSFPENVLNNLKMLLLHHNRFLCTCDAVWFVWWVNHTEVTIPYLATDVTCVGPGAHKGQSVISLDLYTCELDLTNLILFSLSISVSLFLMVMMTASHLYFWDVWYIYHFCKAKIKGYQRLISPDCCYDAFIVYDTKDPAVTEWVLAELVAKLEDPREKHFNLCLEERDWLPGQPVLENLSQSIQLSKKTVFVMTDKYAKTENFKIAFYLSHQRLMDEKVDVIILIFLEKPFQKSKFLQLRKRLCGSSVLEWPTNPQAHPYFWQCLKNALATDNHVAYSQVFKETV
Chain of human TLR8 (Q9NR97 27-1041): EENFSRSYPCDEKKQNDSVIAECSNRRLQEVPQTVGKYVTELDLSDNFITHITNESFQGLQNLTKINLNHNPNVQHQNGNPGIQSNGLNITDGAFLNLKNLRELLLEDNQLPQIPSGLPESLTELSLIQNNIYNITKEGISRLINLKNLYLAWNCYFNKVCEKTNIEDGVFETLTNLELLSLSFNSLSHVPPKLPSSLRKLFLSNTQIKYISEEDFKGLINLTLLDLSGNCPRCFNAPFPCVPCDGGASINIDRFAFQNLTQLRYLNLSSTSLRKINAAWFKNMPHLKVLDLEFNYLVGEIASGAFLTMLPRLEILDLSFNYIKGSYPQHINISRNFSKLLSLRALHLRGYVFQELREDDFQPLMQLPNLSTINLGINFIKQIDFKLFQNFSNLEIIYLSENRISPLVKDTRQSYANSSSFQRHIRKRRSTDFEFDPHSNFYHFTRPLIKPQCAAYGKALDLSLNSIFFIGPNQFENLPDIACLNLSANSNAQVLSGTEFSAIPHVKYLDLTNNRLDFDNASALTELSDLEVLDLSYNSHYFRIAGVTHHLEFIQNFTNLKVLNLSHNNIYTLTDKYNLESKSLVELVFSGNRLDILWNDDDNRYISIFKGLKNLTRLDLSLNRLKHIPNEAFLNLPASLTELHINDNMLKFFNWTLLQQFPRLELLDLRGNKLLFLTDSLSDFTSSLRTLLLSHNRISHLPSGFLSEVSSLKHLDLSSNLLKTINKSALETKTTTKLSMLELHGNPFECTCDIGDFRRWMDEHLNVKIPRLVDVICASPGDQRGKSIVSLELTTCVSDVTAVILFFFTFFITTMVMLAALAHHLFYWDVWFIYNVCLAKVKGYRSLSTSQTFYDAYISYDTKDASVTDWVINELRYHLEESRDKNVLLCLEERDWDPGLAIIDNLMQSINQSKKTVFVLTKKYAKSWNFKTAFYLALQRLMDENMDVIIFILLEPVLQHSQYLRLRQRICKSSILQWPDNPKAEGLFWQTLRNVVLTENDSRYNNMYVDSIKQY

| SMILES | IC50 [1] [µM] | IC50 [2] [µM] | IC50 [3] [µM] |
| --- | --- | --- | --- |
| CC(C)c1c(-c2cc(CO)c3ncnn3c2)[nH]c2ccc(C3CCC(NCc4c[nH]nn4)CC3)nc12 (stereo not drawn) [Example 218] | 0.0085 | 0.02 | 0.389 |
| CC(C)c1c(-c2cc(CO)c3ncnn3c2)[nH]c2ccc(C3CCC(NCc4c[nH]nn4)CC3)nc12 (stereo not drawn) [Example 221] | 0.0037 | 0.013 | 0.435 |
| Cc1cnc(CNC2CCC(c3ccc4[nH]c(-c5cc(CO)c6ncnn6c5)c(C(C)C)c4n3)CC2)cn1 (stereo not drawn) [Example 224] | 0.0015 | 0.0042 | 0.718 |
| Cc1c(-c2[nH]c3ccc(C4CCC(NC5COC5)CC4)nc3c2C(C)C)cn2cnnc2c1C (stereo not drawn) [Example 233] | 0.011 | 0.024 | 2.66 |
| Cc1c(-c2[nH]c3ccc(C4CCC(NC5COC5)CC4)nc3c2C(C)C)cn2cnnc2c1C (stereo not drawn) [Example 234] | 0.0016 | 0.005 | 0.435 |
| CC(C)c1c(-c2cn(C)c3ncccc23)[nH]c2ccc(C3CCC(NCC4(S(C)(=O)=O)CC4)CC3)nc12 (stereo not drawn) [Example 236] | 0.0039 | 0.0028 | 0.376 |
| Cc1c(-c2[nH]c3ccc(C4CCC(N(C5CC5)C5COC5)CC4)nc3c2C(C)C)cn2cnnc2c1C (stereo not drawn) [Example 237] | 0.02 | 0.019 | 18.2 |
| CC(C)c1c(-c2cn(C)c3ncccc23)[nH]c2ccc(C3CCC(NCC4(S(C)(=O)=O)CC4)CC3)nc12 (stereo not drawn) [Example 238] | 0.00071 | 0.00097 | 0.297 |
| Cc1c(-c2[nH]c3ccc(C4CCC(N(C5CC5)C5COC5)CC4)nc3c2C(C)C)cn2cnnc2c1C (stereo not drawn) [Example 239] | 0.106 | 0.181 | > 50 |
| CC(C)c1c(-c2cn(C)c3ncccc23)[nH]c2ccc(C3CCC(NC4CC4)CC3)nc12 (stereo not drawn) [Example 243] | 0.0076 | 0.0095 | 0.999 |
| CC(C)c1c(-c2cn(C)c3ncccc23)[nH]c2ccc(C3CCC(N4CC5(COC5)C4)CC3)nc12 (stereo not drawn) [Example 245] | 0.0027 | 0.0047 | 0.343 |
| CC(C)c1c(-c2cn(C)c3ncccc23)[nH]c2ccc(C3CCC(NCCS(C)(=O)=O)CC3)nc12 (stereo not drawn) [Example 247] | 0.0012 | 0.0012 | 0.825 |
| CC(C)c1c(-c2cn(C)c3ncccc23)[nH]c2ccc(C3CCC(NCCS(C)(=O)=O)CC3)nc12 (stereo not drawn) [Example 251] | 0.0086 | 0.013 | 1.75 |
| CC(C)c1c(-c2cn(C)c3ncccc23)[nH]c2ccc(C3CCC(N4CC5(C4)CS(=O)(=O)C5)CC3)nc12 (stereo not drawn) [Example 255] | 0.0006 | 0.00025 | 0.218 |
| CC(C)c1c(-c2cn(C)c3ncccc23)[nH]c2ccc(C3CCC(N4CC5(C4)CS(=O)(=O)C5)CC3)nc12 (stereo not drawn) [Example 256] | 0.0012 | 0.0037 | 0.335 |
| CC(C)c1c(-c2cn(CCS(C)(=O)=O)c3ncccc23)[nH]c2ccc(C3CCC(NCC(=O)N(C)C)CC3)nc12 (stereo not drawn) [Example 257] | 0.035 | 0.025 | 0.175 |
| CC(C)c1c(-c2cn(CCS(C)(=O)=O)c3ncccc23)[nH]c2ccc(C3CCC(N4CC5(COC5)C4)CC3)nc12 (stereo not drawn) [Example 258] | 0.013 | 0.0035 | 0.1 |
| CC(C)c1c(-c2cn(CCS(C)(=O)=O)c3ncccc23)[nH]c2ccc(C3CCC(NCC4(S(C)(=O)=O)CC4)CC3)nc12 (stereo not drawn) [Example 259] | 0.019 | 0.0071 | 0.321 |
| CC(C)c1c(-c2cn(CCS(C)(=O)=O)c3ncccc23)[nH]c2ccc(C3CCC(O)CC3)nc12 (stereo not drawn) [Example 260] | 0.527 | 0.173 | 10.9 |
| CC(C)c1c(-c2cn(CCS(C)(=O)=O)c3ncccc23)[nH]c2ccc(C3CCC(NCC(=O)N(C)C)CC3)nc12 (stereo not drawn) [Example 261] | 0.262 | 0.09 | 0.381 |
| CC(C)c1c(-c2cn(CCS(C)(=O)=O)c3ncccc23)[nH]c2ccc(C3CCC(NCC4(S(C)(=O)=O)CC4)CC3)nc12 (stereo not drawn) [Example 262] | 0.17 | 0.019 | 0.354 |
| CNC1CCC(c2ccc3[nH]c(-c4cn(CC#N)c5ncccc45)c(C(C)C)c3n2)CC1 (stereo not drawn) [Example 263] | 0.0062 | 0.0076 | 0.338 |

The remaining lines, values ahead:

| IC50 [1] [µM] | IC50 [2] [µM] | IC50 [3] [µM] | SMILES |
| --- | --- | --- | --- |
| > 3.12 | > 3.12 | > 50 | CNC(=O)CN(C)C1CCC(c2ccc3[nH]c(-c4cc(OC)c5ncnn5c4)c(C(C)C)c3n2)CC1 (stereo not drawn) [Example 210] |
| 0.0011 | 0.0068 | 0.585 | COc1cc(-c2[nH]c3ccc(C4CCC(N(C)CC(=O)N(C)C)CC4)nc3c2C(C)C)cn2ncnc12 (stereo not drawn) [Example 211] |
| 0.0034 | 0.0068 | 1.19 | COc1cc(-c2[nH]c3ccc(C4CCC(N(C)CC(N)=O)CC4)nc3c2C(C)C)cn2ncnc12 (stereo not drawn) [Example 212] |
| 0.0095 | 0.017 | 0.706 | COCc1cc(-c2[nH]c3ccc(C4CCC(NCC(=O)N(C)C)CC4)nc3c2C(C)C)cn2ncnc12 (stereo not drawn) [Example 213] |
| 0.0039 | 0.0063 | 0.833 | COCc1cc(-c2[nH]c3ccc(C4CCC(NC5COC5)CC4)nc3c2C(C)C)cn2ncnc12 (stereo not drawn) [Example 214] |
| […] | 0.0076 | 2.25 | CC(C)c1c(-c2cc(CO)c3ncnn3c2)[nH]c2ccc(C3CCC(NC4COC4)CC3)nc12 (stereo not drawn) [Example 215] |
| 0.0039 | 0.008 | 2.48 | COc1cc(-c2[nH]c3ccc(C4CCC(NCC5(S(C)(=O)=O)CC5)CC4)nc3c2C(C)C)cn2ncnc12 (stereo not drawn) [Example 219] |
| […] | 0.0061 | 1.02 | CC(C)c1c(-c2cc(CO)c3ncnn3c2)[nH]c2ccc(C3CCC(NC4COC4)CC3)nc12 (stereo not drawn) [Example 220] |
| 0.004 | 0.035 | 3.36 | COc1cc(-c2[nH]c3ccc(C4CCC(N(C)CC(N)=O)CC4)nc3c2C(C)C)cn2ncnc12 (stereo not drawn) [Example 225] |
| 0.0027 | 0.014 | 1.79 | COc1cc(-c2[nH]c3ccc(C4CCC(N(C)CC(=O)N(C)C)CC4)nc3c2C(C)C)cn2ncnc12 (stereo not drawn) [Example 226] |
| 0.002 | 0.0077 | 0.926 | CNC(=O)CN(C)C1CCC(c2ccc3[nH]c(-c4cc(OC)c5ncnn5c4)c(C(C)C)c3n2)CC1 (stereo not drawn) [Example 227] |
| 0.0033 | 0.023 | 2.39 | CNC(=O)CN(C)C1CCC(c2ccc3[nH]c(-c4cc(OC)c5ncnn5c4)c(C(C)C)c3n2)CC1 (stereo not drawn) [Example 228] |
| 0.019 | 0.018 | 1.71 | COCc1cc(-c2[nH]c3ccc(C4CCC(NC5COC5)CC4)nc3c2C(C)C)cn2ncnc12 (stereo not drawn) [Example 229] |
| 0.038 | 0.033 | 2.46 | COCc1cc(-c2[nH]c3ccc(C4CCC(NCC(=O)N(C)C)CC4)nc3c2C(C)C)cn2ncnc12 (stereo not drawn) [Example 230] |
| 0.00061 | 0.003 | 0.365 | COc1cc(-c2[nH]c3ccc(C4CCC(NCC(=O)N(C)C)CC4)nc3c2C(C)C)cn2ncnc12 (stereo not drawn) [Example 231] |
| 0.003 | 0.0098 | 0.484 | COc1cc(-c2[nH]c3ccc(C4CCC(NCC(=O)N(C)C)CC4)nc3c2C(C)C)cn2ncnc12 (stereo not drawn) [Example 232] |
| […] | 0.002 | 0.929 | CC(C)c1c(-c2cc(CO)c3ncnn3c2)[nH]c2ccc(C3CCC(NC4COC4)CC3)nc12 (stereo not drawn) [Example 235] |
| 0.0054 | 0.016 | 5.08 | COc1cc(-c2[nH]c3ccc(C4CCC(N(C)C5COC5)CC4)nc3c2C(C)C)cn2ncnc12 (stereo not drawn) [Example 240] |
| 0.002 | 0.0029 | 1.75 | COc1cc(-c2[nH]c3ccc(C4CCC(N(C)CCS(C)(=O)=O)CC4)nc3c2C(C)C)cn2ncnc12 (stereo not drawn) [Example 241] |
| 0.0015 | 0.015 | 2.41 | COc1cc(-c2[nH]c3ccc(C4CCC(N(C)CCS(C)(=O)=O)CC4)nc3c2C(C)C)cn2ncnc12 (stereo not drawn) [Example 242] |
| 0.0016 | 0.0082 | 2.35 | COc1cc(-c2[nH]c3ccc(C4CCC(N5CC6(COC6)C5)CC4)nc3c2C(C)C)cn2ncnc12 (stereo not drawn) [Example 244] |
| 0.0019 | 0.0026 | 4.28 | CC(C)c1c(-c2cc(CO)c3ncnn3c2)[nH]c2ccc(C3CCC(N(C)C4COC4)CC3)nc12 (stereo not drawn) [Example 246] |
| 0.0015 | 0.013 | 1.79 | COc1cc(-c2[nH]c3ccc(C4CCC(N5CC6(C5)CS(=O)(=O)C6)CC4)nc3c2C(C)C)cn2ncnc12 (stereo not drawn) [Example 248] |
| 0.025 | 0.0073 | 5.98 | Cc1c(-c2[nH]c3ccc(C4CCC(N(C)C5COC5)CC4)nc3c2C(C)C)cn(C)c(=O)c1C (stereo not drawn) [Example 249] |
| 0.026 | 0.057 | 13.7 | Cc1cc(-c2[nH]c3ccc(C4CCC(N(C)C5COC5)CC4)nc3c2C(C)C)cn(C)c1=O (stereo not drawn) [Example 250] |
| 0.008 | 0.01 | 7.25 | CC(C)c1c(-c2cc(CO)c3ncnn3c2)[nH]c2ccc(C3CCC(N(C)C4COC4)CC3)nc12 (stereo not drawn) [Example 252] |
| 0.00065 | 0.00072 | 1.15 | COc1cc(-c2[nH]c3ccc(C4CCC(N5CC6(C5)CS(=O)(=O)C6)CC4)nc3c2C(C)C)cn2ncnc12 (stereo not drawn) [Example 253] |
| 0.072 | 0.027 | 8.73 | Cc1c(-c2[nH]c3ccc(C4CCC(N(C)C5COC5)CC4)nc3c2C(C)C)cn(C)c(=O)c1C (stereo not drawn) [Example 254] |
